Columns and labels:
C57BL/6J mice = experiment: CCl4 model of liver injury and fibrosis; format: in vivo, mouse
Protocol: (§1) LX-2 cells, a generous gift from Professor Scott Friedman, Mount Sinai School of Medicine, New York, N.Y., were cultured as described previously (Xu et al., 2005). […] For luciferase assays, DNA transfections were performed using Fugene 6 (Roche) following the manufacturer's instructions. […] RT-qPCR, total RNA was purified following TRIzol extraction and treated with DNaseI (Invitrogen). cDNA synthesis was carried out with iScript RT Supermix (Biorad). Quantitative PCR was performed in technical triplicates using SYBR Green reagent (Biorad). The relative standard curve method was used for quantitation (Biorad). Expression levels were calculated by normalization to either Gapdh (mouse) or U36B4 (human) quantities.
8 week-old male C57BL/6J mice were IP injected with 0.5 ml/kg body weight CCl4 (1:50 v/v in corn oil from Sigma) or vehicle (DMSO in corn oil) three times a week for 4 weeks. […] The animals were terminated 72 hours after the final CCl4 injection and whole livers and serum were collected for histological, cytological, biochemical and molecular analyses.
5 μm sections of formalin-fixed liver were stained following standard H&E and Sirius Red methods and reviewed by a pathologist who was blinded to the experimental conditions. Fibrosis was scored using the Ishak modified histological activity index (HAI) scoring system. Fibrosis was also quantified using Image J software on 10 non-contiguous Sirius Red stained sections. All images were obtained using a high-resolution Leica DFC420 digital camera mounted on an Olympus microscope equipped with ×4/0.13, ×10/0.30, ×20/0.50 and ×40/0.75 UplanFL N plan objective lenses and processed with the Leica Application Suite. Hepatic hydroxyproline content was measured using a commercial colorimetric assay from Biovision (K555-100).

primary mouse HSCs = experiment: Fibrotic gene expression in primary mouse HSCs; format: cell-based; details: primary mouse HSCs (data not shown)
Protocol: HSCs were isolated from 10-week old male C57BL/6J mice and Wistar rats by in situ pronase, collagenase perfusion and single-step Histogenz gradient as previously reported (Hendriks et al., 1985; Knook et al., 1982). Isolated HSCs were cultured in DMEM (Mediatech) containing 20% FBS (Hyclone) on 6-well plates for 40 hours prior to end-point assays.
as §1

LX-2 cells = experiment: TGFβ1-induced fibrotic gene expression (RT-qPCR, siRNA) in LX-2 cells; format: cell-based, human
Protocol: FIGS. 4A-4C. VDR Signaling Suppresses TGFβ-induced Pro-Fibrotic Genes. (A) Heat map comparing 519 differentially expressed genes in freshly isolated rat HSCs (quiescent HSCs, Q-HSCs), activated HSCs (A-HSCs, 3 days culture on plastic) and cells cultures in the presence of 10 nM 1,25(OH)2D3 (A-HSCs+1,25(OH)2D3). Euclidean clustering of both rows and columns using log2 transformed microarray expression data, n=2 per treatment group. (B) Heat map of fold expression change of genes involved in fibrosis in primary rat HSCs treated with TGFβ1 (1 ng/ml) and TGFβ1 plus 1,25(OH)2D3 (100 nM) for 24 hours, n=2 per treatment group. […] Data represents the mean±SEM of at least three independent experiments performed in triplicate. Asterisks denote statistically significant differences (Student's unpaired t-test, *p<0.05, **p<0.01).
LX-2 cells, a generous gift from Professor Scott Friedman, Mount Sinai School of Medicine, New York, N.Y., were cultured as described previously (Xu et al., 2005). […] For luciferase assays, DNA transfections were performed using Fugene 6 (Roche) following the manufacturer's instructions. […] Quantitative PCR was performed in technical triplicates using SYBR Green reagent (Biorad). The relative standard curve method was used for quantitation (Biorad). Expression levels were calculated by normalization to either Gapdh (mouse) or U36B4 (human) quantities. […]

SMAD3 = experiment: ChIP-qPCR time course of SMAD3 binding at COL1A1 regulatory region #1 in LX-2 cells; format: cell-based, human
Description: FIGS. 14A-14D. VDR/SMAD Genomic Circuit. […] Data represents the mean±SEM of at least three independent experiments performed in triplicate. Asterisks denote statistically significant differences compared to calcipotriol-induced VDR occupancy or TGFβ1-induced SMAD3 occupancy of corresponding time point (Student's unpaired t-test, *p<0.05, **p<0.01). […] Data represents the mean±SEM of at least three independent experiments performed in triplicate. (D) Model depicting proposed VDR/SMAD genomic circuit controlling pro-fibrogenic responses in HSCs.
Cells were then harvested for ChIP assay. The experimental procedure for ChIP was as previously described (Barish et al., 2010). Briefly, after fixation, nuclei from LX-2 cells were isolated, lysed and sheared with a Diagenode Bioruptor to yield DNA fragment sizes of 200-1000 base pairs followed by immunoprecipitation using antibodies listed below: normal rabbit IgG (Santa Cruz, sc-2027), VDR (Santa Cruz, sc-1008), SMAD3 (Abcam, ab28379) and histone H3 (Abcam, ab1791). For ChIP-Re-ChIP, after first ChIP, the immunoprecipitated DNA-protein complex was eluted from beads using 10 mM DTT, diluted 100-fold then re-immunoprecipitated with a second antibody, re-ChIP.
Specifically, ChIP-qPCR was employed to monitor binding of VDR and SMAD3 to the cis-regulatory region of COL1A1 at multiple time points (0, 1, 2, 4, 6, 16 hours).

rat HSCs = experiment: Microarray of culture-induced activation of HSCs; format: cell-based; details: 3 days culture on plastic, 10 nM 1,25(OH)2D3
Protocol: VDR Signaling Suppresses TGFβ-induced Pro-Fibrotic Genes. (A) Heat map comparing 519 differentially expressed genes in freshly isolated rat HSCs (quiescent HSCs, Q-HSCs), activated HSCs (A-HSCs, 3 days culture on plastic) and cells cultures in the presence of 10 nM 1,25(OH)2D3 (A-HSCs+1,25(OH)2D3). Euclidean clustering of both rows and columns using log2 transformed microarray expression data, n=2 per treatment group. […] Data represents the mean±SEM of at least three independent experiments performed in triplicate. Asterisks denote statistically significant differences (Student's unpaired t-test, *p<0.05, **p<0.01). HSCs were isolated from 10-week old male C57BL/6J mice and Wistar rats by in situ pronase, collagenase perfusion and single-step Histogenz gradient as previously reported (Hendriks et al., 1985; Knook et al., 1982). Isolated HSCs were cultured in DMEM (Mediatech) containing 20% FBS (Hyclone) on 6-well plates for 40 hours prior to end-point assays. Total RNA from primary rat or mouse HSCs was isolated using the RNeasy mini kit (Qiagen) according to standard protocols. RNA integrity and quality was assessed using the Agilent Bioanalyzer and prepared for hybridization to Illumina rat or mouse gene expression arrays according to standard Illumina protocols. Feature extraction was performed using the Illumina GenomeStudio software. […]

SMILES | fibrosis (Sirius red staining, hepatic hydroxyproline content, histological fibrotic scoring) (C57BL/6J mice; CCl4 0.5 ml/kg IP 3 times per week, 4 weeks, calcipotriol 20 μg/kg oral gavage co-treatment) | serum calcium concentration (C57BL/6J mice; calcipotriol 20 μg/kg oral gavage, 4 weeks) | down-regulation of fibrotic marker genes Col1a1, Tgfb1 and Timp1 (C57BL/6J mice; hepatic gene expression, RT-qPCR, CCl4/calcipotriol co-treated vs CCl4) | fibrogenic response in liver (C57BL/6J mice; pre-treated with calcipotriol for 5 weeks prior to CCl4/calcipotriol co-treatment) | fibrotic gene expression (primary mouse HSCs) | fibrotic gene expression (LX-2 cells) | calcipotriol-mediated repression of TGFβ1 induced gene expression after loss of VDR (LX-2 cells; siVDR RNAi, Cal 100 nM, TGFβ1 1 ng/ml, 16 hours) | SMAD3 recruitment reduced (SMAD3; after 4 hours, TGFβ1 + calcipotriol vs TGFβ1) [%] | time of maximum binding of SMAD3 post-TGFβ1 treatment (SMAD3; in the presence of calcipotriol 100 nM, TGFβ1 alone maximal at 4 hours) [h] | culture-induced activation of HSCs (transcriptome) (rat HSCs)
C=C1/C(=C\C=C2/CCC[C@]3(C)[C@@H]([C@H](C)/C=C/[C@@H](O)C4CC4)CC[C@@H]23)C[C@@H](O)C[C@@H]1O [calcipotriol, 1α,24-(OH)2-24-cyclopropyl-D3] | significant reduction in fibrosis | not significantly altered | 50-70% | nearly completely abrogated | potently repressed | potently repressed | abolished | 70 | 1 | –
C=C1/C(=C\C=C2/CCC[C@]3(C)C([C@H](C)CCCC(C)(C)O)CC[C@@H]23)C[C@@H](O)C[C@@H]1O (stereo partly drawn) [1,25(OH)2D3, 1α,25 dihydroxyvitamin D3] | – | – | – | – | – | – | – | – | – | attenuated
